According to the supplement of paper PMC10878532, “Sperm Toolbox—A selection of small molecules to study human spermatozoa” (PLOS ONE, 2024):

Legend:
HeLa [1] = experiment: HeLa toxicity: nuclei-count effect normalised to DMSO (DMSO = 0); higher = more features changed / larger toxic effect; settings: incubation time: 24h incubation
human spermatozoa [2] = experiment: hyperactivated motile sperm, percent change vs DMSO (capacitating); higher = more of the measured sperm population than DMSO, for viability, fewer PI-positive (dead) cells than DMSO; settings: incubation time: 30min incubation
HeLa [3] = experiment: Cell Painting percent induction (share of features beyond 2 z-scores vs DMSO); higher = more features changed / larger toxic effect; extreme values may be limits of the assay; settings: incubation time: 24h incubation
human spermatozoa [4] = experiment: total motile sperm, percent change vs DMSO (non-capacitating); higher = more of the measured sperm population than DMSO, for viability, fewer PI-positive (dead) cells than DMSO
human spermatozoa [5] = experiment: progressively motile sperm, percent change vs DMSO (capacitating); higher = more of the measured sperm population than DMSO, for viability, fewer PI-positive (dead) cells than DMSO; settings: incubation time: 30min incubation
human spermatozoa [6] = experiment: change in acrosome-reacted (PNA+) sperm vs DMSO, no agonist (capacitating); higher = more of the measured sperm population than DMSO, for viability, fewer PI-positive (dead) cells than DMSO; settings: incubation time: 3h
human spermatozoa [7] = experiment: viability fold change, 1 - (PI-positive fraction / DMSO median); higher = more of the measured sperm population than DMSO, for viability, fewer PI-positive (dead) cells than DMSO; settings: incubation time: 3h, non-capacitating
HepG2 = HepG2 toxicity (resazurin), effect normalised to DMSO (DMSO = 0); higher = more features changed / larger toxic effect; settings: incubation time: 70h incubation
human spermatozoa [8] = experiment: progressively motile sperm, percent change vs DMSO (non-capacitating); higher = more of the measured sperm population than DMSO, for viability, fewer PI-positive (dead) cells than DMSO; extreme values may be limits of the assay
human spermatozoa [9] = experiment: acrosome-reacted (PNA+) sperm after agonist cocktail, percent change vs DMSO (capacitating); higher = more of the measured sperm population than DMSO, for viability, fewer PI-positive (dead) cells than DMSO; settings: incubation time: 3h, capacitating + agonist cocktail 1h
[10] = incubation time: 10min incubation, 9.99 µM
[11] = incubation time: 10min incubation, 29.9 µM
[12] = incubation time: 3h incubation, 9.99 µM
[13] = incubation time: 3h incubation, 29.9 µM
[14] = incubation time: 6h incubation, 9.99 µM
[15] = incubation time: 6h incubation, 29.9 µM
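For progressively motile sperm, percent change vs DMSO (non-capacitating) in this document: pooled live human sperm from at least 3 donors, tracked by automated microscopy in 0.5 s time-lapse movies, compounds at 10 and 30 µM, versus median of 16 DMSO wells per plate.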
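For total motile sperm, percent change vs DMSO (non-capacitating) in this document: sperm pooled from at least 3 donors, tracked in 0.5 s time-lapse movies by automated microscopy after 10 min, 3 h or 6 h with compound at 10 or 30 µM.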

| Compound | HeLa toxicity: nuclei-count effect normalised (HeLa [1]; 9.99 µM) [%] | HeLa toxicity: nuclei-count effect normalised (HeLa [1]; 29.9 µM) [%] | hyperactivated motile sperm (human spermatozoa [2]; 9.99 µM) [%] | hyperactivated motile sperm (human spermatozoa [2]; 29.9 µM) [%] | Cell Painting percent induction (HeLa [3]; 9.99 µM) [%] | Cell Painting percent induction (HeLa [3]; 29.9 µM) [%] | total motile sperm (human spermatozoa [4]; [10]) [%] | total motile sperm (human spermatozoa [4]; [11]) [%] | total motile sperm (human spermatozoa [4]; [12]) [%] | total motile sperm (human spermatozoa [4]; [13]) [%] | total motile sperm (human spermatozoa [4]; [14]) [%] | total motile sperm (human spermatozoa [4]; [15]) [%] | progressively motile sperm (human spermatozoa [5]; 9.99 µM) [%] | progressively motile sperm (human spermatozoa [5]; 29.9 µM) [%] | change in acrosome-reacted (human spermatozoa [6]; 9.99 µM) [%] | change in acrosome-reacted (human spermatozoa [6]; 29.9 µM) [%] | viability fold change (human spermatozoa [7]; 9.99 µM) | viability fold change (human spermatozoa [7]; 29.9 µM) | HepG2 toxicity (HepG2; 10 µM) [%] | HepG2 toxicity (HepG2; 30 µM) [%] | progressively motile sperm (human spermatozoa [8]; [10]) [%] | progressively motile sperm (human spermatozoa [8]; [11]) [%] | progressively motile sperm (human spermatozoa [8]; [12]) [%] | progressively motile sperm (human spermatozoa [8]; [13]) [%] | progressively motile sperm (human spermatozoa [8]; [14]) [%] | progressively motile sperm (human spermatozoa [8]; [15]) [%] | acrosome-reacted (human spermatozoa [9]; 9.99 µM) [%] | acrosome-reacted (human spermatozoa [9]; 29.9 µM) [%] |
| --- | --- | --- | --- | --- | --- | --- | --- | --- | --- | --- | --- | --- | --- | --- | --- | --- | --- | --- | --- | --- | --- | --- | --- | --- | --- | --- | --- | --- |
| CC(C)(O)c1ccn2c(-c3ccc(F)c(-c4ccc(F)cc4C#N)c3)cnc2c1F [TP 003] | 15.4 | 27.2 | 59.6 | -58 | 0.324 | 2.31 | 1.87 | -0.967 | -7.62 | -8.89 | -7.79 | -10.8 | 12.3 | 2.2 | 1.9 | 2.84 | -1.77 | -1.42 | 3.92 | 16.1 | 41.3 | 34.6 | 73.6 | 57.9 | 96 | 62.3 | 100 | 116 |
| C=CC[C@@H]1/C=C(\C)C[C@H](C)C[C@H](OC)[C@H]2O[C@@](O)(C(=O)C(=O)N3CCCC[C@H]3C(=O)O[C@H](/C(C)=C/[C@@H]3CC[C@@H](O)[C@H](OC)C3)[C@H](C)[C@@H](O)CC1=O)[C@H](C)C[C@@H]2OC [Tacrolimus] | -1.94 | 18.1 | -13.3 | -55.8 | 0 | 0.072 | 3.53 | 3.6 | -6.77 | -2.1 | -8.35 | -8.9 | 0.476 | -0.37 | 0.533 | 0.376 | -1.97 | -2.04 | -3.53 | 10.6 | 5.82 | 0.659 | -17.7 | -17.9 | -13.1 | -20.1 | -13.9 | -24 |
| COc1cc(C)c2c(Oc3cccc(C(F)(F)F)c3)c(OC)cc(NC(C)CCCN)c2n1 (stereo not given) [Tafenoquine] | 97.2 | 96.3 | -85.5 | -85.1 | 28.9 | 18 | -17.5 | -74.6 | -71.2 | -90.7 | -79.5 | -92 | -71.9 | -99.9 | 46.7 | 75 | -1.97 | -2.48 | 103 | 103 | -20.8 | -94.3 | -85.3 | -100 | -93.7 | -100 | 86.1 | 161 |
| COc1cn(-c2ccc(-n3cccn3)cc2F)nc(-c2ccnn2-c2ccccc2)c1=O [Tak-063] | 6.28 | 2.94 | 321 | 303 | 1.19 | 3.31 | -3.81 | -3.32 | -11 | -14.9 | -15.5 | -20.7 | 4.06 | 10.1 | 0.708 | 0.393 | -1.78 | -1.87 | -4.05 | 8.05 | 26.4 | 27.7 | 64.8 | 48.7 | 74.2 | 44 | 114 | 117 |
| CCOc1ccccc1OCCN[C@H](C)Cc1ccc(OC)c(S(N)(=O)=O)c1 [Tamsulosin] | -2.07 | 2.87 | 26 | 16.1 | 0 | 0 | 4.75 | 4.64 | 1.09 | 4.59 | 2.47 | 0.434 | 7.35 | 14.8 | 0.811 | 1.12 | -0.468 | -0.658 | -2.54 | 9.76 | 3.42 | 13.4 | 17.3 | 20.7 | 23.6 | 26.5 | 8.46 | 14.3 |
